Data on three molecules can be found in patent publication US20230374505A1, “Human XIST Antisense Oligonucleotides for X Reactivation Therapy” (The General Hospital Corporation, priority 2020, published 2023).

Data set [1] deals with human CDKL5 patient fibroblast line. As to the kind of experiment: Toxicity of nanaomycin to CDKL5 patient fibroblasts. Format: cell-based. The following applies: added every 2 days, 5 days treatment; data not shown. How it is done:
Experiments were also conducted to test Xi reactivation in human CDKL5 patient's fibroblast with XIST ASO-6B and DNMT3 inhibitor, Nanaomycin, co-treatment. A human CDKL5 patient fibroblast line carrying mutation on the Xa was treated with an ASO to XIST and a DNMT3i, nanaomycin A. After 5 days of treatment with 20 nM XIST ASO-6B (added once at day 0; lipofectamine transfection) and 25 nM-1 uM nanaomycin A (added every 2 days; days 0, 2, and 4), cells were harvested for qPCR analysis (FIG. 10A). Nanaomycin is very toxic, and the cells were dead in concentration above 250 nM (data not shown).

A further data set relates to CDKL5 wt allele (Xi). Kind of data set: CDKL5 wt allele reactivation in human CDKL5 patient fibroblasts, allele-specific qPCR. Format: cell-based. How it is done:
FIGS. 6A-6B. XIST ASO (ASO-6B) and DNMTi co-treatment in CDKL5 patient fibroblast. (A) A schematic of treatment of a human CDKL5 patient fibroblast line carrying mutation on the Xa. After 3 days of treatment with 100 nM XIST ASOs (lipofectamine transfection) and 0.5 uM Aza (added every 2 days), harvested cells underwent qPCR analysis. […] CDKL5 wt reactivation was normalized to CDKL5mut expression from the Xa chromosome, normalized to RPL13a.
FIGS. 8A-8C. Xi reactivation in human CDKL5 patient's fibroblast with XIST ASO+/−DNMTi (Decitabine, Azacitidine, RG-108). (A) A human CDKL5 patient fibroblast line carrying mutation on the Xa was treated with ASOs to XIST and three DNMTi. On day 0, cells were treated with 20 nM of XIST ASO-6B, and 1 uM of each DNMTi every 2 days. On day 7, cells were harvested for qPCR analysis. […] XIST expression was relative to untreated levels, normalized to RPL13a. […] CDKL5 wt reactivation was normalized to CDKL5mut expression from the Xa chromosome.
FIGS. 9A-9C. Xi reactivation in human CDKL5 patient's fibroblast with XIST ASO-6B and DNMT inhibitor (SGI-1027) co-treatment. (A) A human CDKL5 patient fibroblast line carrying mutation on the Xa was treated with an ASO to XIST and an DNMTi. […]

The subject of a further data set is XIST. As to the kind of experiment: XIST expression in CDKL5 patient fibroblasts after XIST ASO with or without DNMTi, qPCR. Format: cell-based, human. On the procedure: FIGS. 8A-8C. Xi reactivation in human CDKL5 patient's fibroblast with XIST ASO+/−DNMTi (Decitabine, Azacitidine, RG-108). (A) A human CDKL5 patient fibroblast line carrying mutation on the Xa was treated with ASOs to XIST and three DNMTi. On day 0, cells were treated with 20 nM of XIST ASO-6B, and 1 uM of each DNMTi every 2 days. […] XIST expression was relative to untreated levels, normalized to RPL13a. […] CDKL5 wt reactivation was normalized to CDKL5mut expression from the Xa chromosome.
FIGS. 11A-11B. Triplicate experiment showing Xi reactivation in human CDKL5 patient's fibroblast with XIST ASO+/−DNMTi (Decitabine, Azacitidine, RG-108). […] CDKL5 wt reactivation was normalized to CDKL5mut expression from the Xa chromosome. Data shown are the average of three experiments; error bars are standard deviation.
RNA was isolated by Trizol (Life Technologies) extraction (tissues were snap frozen in liquid nitrogen and ground with pestle and mortar or put in Trizol and homogenized using a Qiagen TissueLyser), treated with TurboDNAse for 30 min at 37° C. […] The relative efficiency of the reactivations was calculated by comparing to GAPDH or TBP RNA as the internal control in mouse experiment. The relative efficiency of the reactivations was calculated by comparing to RPL13a as the internal control in human cells. […]

A further data set relates to cell culture. Kind of data set: Tolerable Aza concentration in cell culture. Format: cell-based.
Data set [2] relates to Xi reactivation in the brain. Kind of data set: Aza/decitabine three pulse treatment, Xi reactivation in the brain. The data set is classed as in vivo, mouse. The following applies: three short pulses delivered systemically; after two weeks. The source says: ASO drugs are generally more specific and have the advantage that information on pharmacokinetics and toxicity studies for chemically similar ASOs is transferable and cumulative. Thus, ASOs may have a more favorable path to regulatory approval. Small molecules generally have lower selectivity and may face steeper hurdles in the approval process within the US Food and Drug Administration (FDA). By mixing modalities, our approach may potentially anticipate a more streamlined approach to FDA approval. […] Unlike LNA-based ASOs which have tissue half-lives of several weeks (Wahlestedt C et al. Potent and nontoxic antisense oligonucleotides containing locked nucleic acids. Proc Natl Acad Sci USA. 2000; 97:5633-5638), Aza is known to have a very short half-life (t1/2<1h in plasma) (Welch J S et al. TP53 and decitabine in acute myeloid leukemia and myelodysplastic syndromes. N Engl J Med. 2016; 375:2023-2036). However, once DNA is demethylated, the state may be stable (Kordasiewicz H B et al. Sustained therapeutic reversal of Huntington's disease by transient repression of huntingtin synthesis. Neuron. 2012; 74:1031-1044). Future work will determine the duration of the effect and whether periodic boosters of either Aza or ASO might be necessary to maintain the reactivation.
Decitabine was administered to the XIST2lox, Nestin-Cre F2 generation, by IP injection at 5 weeks old. […]

The conditions of data set [3]: in plasma; cited from earlier work.

Take `CC1OC(CC(=O)O)CC2=C1C(=O)c1c(O)cccc1C2=O` (centres unmarked) [Nanaomycin, nanaomycin A]: the “concentration above which the cells were dead” value in data set [1] is “above 250 nM”.
With “ASO 6B: XIST ASO AGAAGTCTGGCACATCTGTG, SEQ ID NO:11 (LNA-flanked DNA gapmer, wing lengths and linkages not given here, further chemistry not given here)”, the CDKL5 reactivation in the data set on CDKL5 wt allele (Xi) (20 nM ASO 6B at day 0, 1 uM Decitabine, 0.5 uM Azacitidine or 1 uM RG-108 at days 0 and 2, harvested Day 4, average of three experiments (FIG. 11B)) was 0.13%; in the data set on CDKL5 wt allele (Xi) (20 nM ASO-6B at day 0, 1 uM DNMTi every 2 days, harvested day 7 (FIG. 8C)), 0.7%. Also, the XIST expression result is recorded as “decreased” in the data set with XIST (20 nM ASO-6B with and without 1 uM DNMTi, 7 days (FIG. 8B)); “decreased” with XIST (20 nM ASO-6B with or without DNMTi, 4 days (FIG. 11A)).
As for `Nc1ncn([C@H]2C[C@H](O)[C@@H](CO)O2)c(=O)n1` [Aza, 5-aza-2′-deoxycytidine], the “tolerable concentration in cell culture” value with cell culture worked out at 0.5 µM. Further, in data set [2], the “Xi reactivation in the brain” value is given as “sufficient to induce Xi reactivation”. Besides, the t1/2 in data set [3] is less than 1 h.
